Laboratory results taken from US9284333B2, “Fused pyrroledicarboxamides and their use as pharmaceuticals” (SANOFI, priority 2012, dated 2016).

Each molecule was assayed against Human TASK-1 channels (Homo sapiens (Human), UniProt O14649) (assay: Determination of the activity on the TASK-1 channel in Xenopus oocytes (two-microelectrode voltage clamp)). Settings: compound concentration 5 μM.
Format: cell-based
Outline: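 Current during 500 ms pulses to 40 mV from a −90 mV hold was recorded in oocytes expressing human TASK-1 for two days after cRNA injection. Compounds were added cumulatively to the ND96 bath (pH 7.4, room temperature). IC50 came from dose-response fitting of inhibition relative to pre-compound current.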

Human TASK-1 channels, sequence (O14649 whole entry): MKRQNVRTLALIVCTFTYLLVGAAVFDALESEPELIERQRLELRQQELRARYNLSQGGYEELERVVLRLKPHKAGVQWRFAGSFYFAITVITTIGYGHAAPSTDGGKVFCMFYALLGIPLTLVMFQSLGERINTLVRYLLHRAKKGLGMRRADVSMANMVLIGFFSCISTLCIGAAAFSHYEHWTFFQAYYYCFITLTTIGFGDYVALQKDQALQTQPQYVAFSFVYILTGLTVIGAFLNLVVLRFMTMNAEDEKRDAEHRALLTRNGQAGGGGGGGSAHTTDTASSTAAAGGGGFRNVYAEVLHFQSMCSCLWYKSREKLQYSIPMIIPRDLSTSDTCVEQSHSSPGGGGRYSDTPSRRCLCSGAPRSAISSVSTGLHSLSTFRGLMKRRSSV

| SMILES | inhibition at 5 µM |
| --- | --- |
| CC[C@@H](NC(=O)c1cc(C(=O)N2CCC[C@@H]2C)n2c1COCC2)c1ncccc1OC [16ao, 6-((S)-2-Methyl-pyrrolidine-1-carbonyl)-3,4-dihydro-1H-pyrrolo[2,1-c][1,4]oxazine-8-carboxylic acid [(R)-1-(3-methoxy-pyridin-2-yl)-propyl]-amide] | 83% |
| CC[C@@H](NC(=O)c1cc(C(=O)N2CCC[C@@H]2C)n2c1CCCC2)c1ccc2c(c1)COC2=O [16lz, 3-((S)-2-Methyl-pyrrolidine-1-carbonyl)-5,6,7,8-tetrahydro-indolizine-1-carboxylic acid [(R)-1-(1-oxo-1,3-dihydro-isobenzofuran-5-yl)-propyl]-amide] | 76% |

Same assay, conditions: human TASK-1 expressed in Xenopus oocytes, room temperature; read-out: IC50 value for TASK-1 inhibition

| SMILES | IC50 |
| --- | --- |
| CC[C@@H](NC(=O)c1cc(C(=O)N(C)CC2CCOCC2)n2c1COCC2)c1ccccc1 [16gd, 3,4-Dihydro-1H-pyrrolo[2,1-c][1,4]oxazine-6,8-dicarboxylic acid 6-[methyl-(tetrahydro-pyran-4-ylmethyl)-amide] 8-[((R)-1-phenyl-propyl)-amide]] | 5400 nM |
| CC[C@H](NC(=O)c1cc(C(=O)N[C@@H](c2ccc(F)cc2)C(C)C)c2n1CCOC2)c1ccccc1 [16jq, 3,4-Dihydro-1H-pyrrolo[2,1-c][1,4]oxazine-6,8-dicarboxylic acid 8-{[(R)-1-(4-fluoro-phenyl)-2-methyl-propyl]-amide} 6-[((S)-1-phenyl-propyl)-amide]] | 67 nM |
| COC(=O)[C@H]1CCCN1C(=O)c1cc(C(=O)N[C@@H](c2ccc(F)cc2)C(C)C)n2c1COCC2 [16ln, (R)-1-{6-[(R)-1-(4-Fluoro-phenyl)-2-methyl-propylcarbamoyl]-3,4-dihydro-1H-pyrrolo[2,1-c][1,4]oxazine-8-carbonyl}-pyrrolidine-2-carboxylic acid methyl ester] | 140 nM |
| CCC(NC(=O)c1cc(C(=O)N[C@H](CC)c2ccccc2)c2n1CCOC2)c1ccc(C)nc1 (stereo partly drawn) [16ho, 3,4-Dihydro-1H-pyrrolo[2,1-c][1,4]oxazine-6,8-dicarboxylic acid 6-{[1-(6-methyl-pyridin-3-yl)-propyl]-amide} 8-[((R)-1-phenyl-propyl)-amide]] | 730 nM |
| CC[C@H](NC(=O)c1cc(C(=O)N[C@@H](CC)c2ncccn2)c2n1CCOC2)c1ccccc1 [16kc] | 1800 nM |
| CC[C@@H](NC(=O)c1cc(C(=O)N2CCC(F)(F)CC2)n2c1CCCC2)c1ccccc1 [16mo, 3-(4,4-Difluoro-piperidine-1-carbonyl)-5,6,7,8-tetrahydro-indolizine-1-carboxylic acid ((R)-1-phenyl-propyl)-amide] | 1900 nM |
| CC[C@@H](NC(=O)c1cc(C(=O)N2CCN(c3ccccn3)CC2)n2c1COCC2)c1ccccc1 [16fq, 6-(4-Pyridin-2-yl-piperazine-1-carbonyl)-3,4-dihydro-1H-pyrrolo[2,1-c][1,4]oxazine-8-carboxylic acid ((R)-1-phenyl-propyl)-amide] | 1100 nM |
| CC[C@H](NC(=O)c1cc(C(=O)N[C@H](C)c2ccc(F)cc2)c2n1CCOC2)c1ncccn1 [16nw, 3,4-Dihydro-1H-pyrrolo[2,1-c][1,4]oxazine-6,8-dicarboxylic acid 8-{[(R)-1-(4-fluoro-phenyl)-ethyl]-amide} 6-[((S)-1-pyrimidin-2-yl-propyl)-amide]] | 200 nM |
| CC[C@@H](NC(=O)c1cc(C(=O)NCc2ncn[nH]2)n2c1COCC2)c1ccccc1 [16ii, 3,4-Dihydro-1H-pyrrolo[2,1-c][1,4]oxazine-6,8-dicarboxylic acid 8-[((R)-1-phenyl-propyl)-amide] 6-[(2H-[1,2,4]triazol-3-ylmethyl)-amide]] | 650 nM |
| CC[C@@H](NC(=O)c1cc(C(=O)N2CCC[C@@H]2C(C)O)n2c1COCC2)c1ccccc1 (stereo partly drawn) [16ey, 6-[(R)-2-(1-Hydroxy-ethyl)-pyrrolidine-1-carbonyl]-3,4-dihydro-1H-pyrrolo[2,1-c][1,4]oxazine-8-carboxylic acid ((R)-1-phenyl-propyl)-amide] | 4700 nM |
| CCOC(=O)[C@H](NC(=O)c1cc(C(=O)N[C@H](CC)c2ccccc2)c2n1CCOC2)c1ccccc1 [16hq, (R)-Phenyl-{[8-((R)-1-phenyl-propylcarbamoyl)-3,4-dihydro-1H-pyrrolo[2,1-c][1,4]oxazine-6-carbonyl]-amino}-acetic acid ethyl ester] | 320 nM |
| CC[C@@H](NC(=O)c1cc(C(=O)N2CCC[C@@H]2C)n2c1COCC2)c1ccc(OC)nc1 [16ai, 6-((S)-2-Methyl-pyrrolidine-1-carbonyl)-3,4-dihydro-1H-pyrrolo[2,1-c][1,4]oxazine-8-carboxylic acid [(R)-1-(6-methoxy-pyridin-3-yl)-propyl]-amide] | 1400 nM |
| CC[C@@H](NC(=O)c1cc(C(=O)N2CCCCCC2)n2c1CCCC2)c1ccccc1 [16mr, 3-(Azepane-1-carbonyl)-5,6,7,8-tetrahydro-indolizine-1-carboxylic acid ((R)-1-phenyl-propyl)-amide] | 200 nM |
| CC[C@@H](NC(=O)c1cc(C(=O)NC2CCCCC2)n2c1CCCC2)c1ccccc1 [16ml, 5,6,7,8-Tetrahydro-indolizine-1,3-dicarboxylic acid 3-cyclohexylamide 1-[((R)-1-phenyl-propyl)-amide]] | 130 nM |
| CC[C@@H](NC(=O)c1cc(C(=O)N[C@H](C)c2ccc(F)cc2)n2c1COCC2)c1ncccn1 [16dz, 3,4-Dihydro-1H-pyrrolo[2,1-c][1,4]oxazine-6,8-dicarboxylic acid 6-{[(R)-1-(4-fluoro-phenyl)-ethyl]-amide} 8-[((R)-1-pyrimidin-2-yl-propyl)-amide]] | 220 nM |
| CC[C@@H](NC(=O)c1cc(C(=O)NC(C)c2cnc(OC)cn2)n2c1COCC2)c1ccccc1 (stereo partly drawn) [16iv, 3,4-Dihydro-1H-pyrrolo[2,1-c][1,4]oxazine-6,8-dicarboxylic acid 6-{[1-(5-methoxy-pyrazin-2-yl)-ethyl]-amide} 8-[((R)-1-phenyl-propyl)-amide]] | 120 nM |
| CC[C@@H](NC(=O)c1cc(C(=O)N2CCN(C)CC2c2ccccc2)n2c1COCC2)c1ccccc1 (stereo partly drawn) [16em, 6-(4-Methyl-2-phenyl-piperazine-1-carbonyl)-3,4-dihydro-1H-pyrrolo[2,1-c][1,4]oxazine-8-carboxylic acid ((R)-1-phenyl-propyl)-amide] | 600 nM |
| O=C(NC(c1ccc(F)cc1)C(F)(F)F)c1cc(C(=O)N2CCCC2)n2c1COCC2 (stereo not shown) [16df, 6-(Pyrrolidine-1-carbonyl)-3,4-dihydro-1H-pyrrolo[2,1-c][1,4]oxazine-8-carboxylic acid [2,2,2-trifluoro-1-(4-fluoro-phenyl)-ethyl]-amide] | 1910 nM |
| CC[C@@H](NC(=O)c1cc(C(=O)NCc2cccc(C#N)c2)n2c1COCC2)c1ccccc1 [16gs, 3,4-Dihydro-1H-pyrrolo[2,1-c][1,4]oxazine-6,8-dicarboxylic acid 6-(3-cyano-benzylamide) 8-[((R)-1-phenyl-propyl)-amide]] | 250 nM |
| CC[C@@H](NC(=O)c1cc(C(=O)N2CCC[C@@H]2C(F)(F)F)n2c1COCC2)c1ccccc1 [16eu, 6-((R)-2-Trifluoromethyl-pyrrolidine-1-carbonyl)-3,4-dihydro-1H-pyrrolo[2,1-c][1,4]oxazine-8-carboxylic acid ((R)-1-phenyl-propyl)-amide] | 49 nM |
